From ChEMBL document CHEMBL1145594, “Carbonic anhydrase inhibitors: design of spin-labeled sulfonamides incorporating TEMPO moieties as probes for cytosolic or transmembrane isozymes” (Bioorg Med Chem Lett, 2008) come the findings set out here.

The term Ki denotes the dissociation constant of the complex between target and ligand, obtained from inhibition or displacement. The low end stands for tighter binding, the high end for weaker binding.

The assay concerns the target Carbonic anhydrase 9 (Homo sapiens, UniProt Q16790).
Description: Inhibition of human cloned carbonic anhydrase 9 by CO2 hydration stopped-flow assay
In turn, `CC1(C)CC(NC(=S)Nc2cccc(S(N)(=O)=O)c2)CC(C)(C)N1[O]` gave a Ki of 132 nM.

Take `CC1(C)CC(NC(=S)Nc2ccc(S(=O)(=O)NCCc3ccc(S(N)(=O)=O)cc3)cc2)CC(C)(C)N1[O]`: the Ki turned out to be 41 nM.

Compound `CC1(C)CC(NC(=S)Nc2ccc(S(=O)(=O)Nc3cccc(S(N)(=O)=O)c3)cc2)CC(C)(C)N1[O]` showed a Ki of 220 nM. This Ki is about 5.4-fold higher than that of the compound before.

In the case of `CC1(C)CC(NC(=S)NCCc2ccc(S(N)(=O)=O)cc2)CC(C)(C)N1[O]`, the Ki came to 39 nM.

Compound `CC1(C)CC(NC(=S)Nc2ccc(S(=O)(=O)NCc3ccc(S(N)(=O)=O)cc3)cc2)CC(C)(C)N1[O]` had a Ki of 7 nM.

With `CC1(C)CC(NC(=S)NCc2ccc(S(N)(=O)=O)cc2)CC(C)(C)N1[O]`, the Ki is 35 nM. Compared with the last compound, the Ki is about 5-fold higher.

`CC1(C)CC(NC(=S)Nc2ccc(S(N)(=O)=O)cc2F)CC(C)(C)N1[O]` displayed a Ki of 22 nM. Against the preceding compound, the Ki is about 1.6-fold lower.

Regarding `CC1(C)CC(NC(=S)Nc2ccc(S(N)(=O)=O)cc2Cl)CC(C)(C)N1[O]`, the Ki was determined as 14 nM.

In turn, `CC1(C)CC(NC(=S)Nc2ccc(S(=O)(=O)Nc3ccc(S(N)(=O)=O)cc3)cc2)CC(C)(C)N1[O]` displayed a Ki of 30 nM.
